Measured values as given in patent publication US7645449B2, “Sensitizing cells for apoptosis by selectively blocking cytokines” (priority 2003, dated 2010).

Columns and labels:
Format in all cases: cell-based, human
[1] = test system: RT112 bladder carcinoma cells; assay: MTS viability of RT112 cells: chemotherapy- and anti-CD95-induced apoptosis; conditions: RT112 without IL-4; 50 ng/ml camptothecin or 7 μM etoposide
Text: Anticancer treatment using cytotoxic drugs mediates cell death by activating the intracellular apoptotic program. To determine whether IL-4 was able to inhibit apoptosis induced by chemotherapeutic drugs, bladder tumor cells (RT112) were pretreated for two days with different concentrations of IL-4 and subsequently exposed to camptothecin or etoposide.
Human LNCAP prostate cancer cell line and human MDA-MB-231 breast cancer cell line were obtained from the American Type Culture Collection (ATCC, Manassas, Va.). Human RT112 bladder carcinoma cell line was kindly provided by Dr. M. Cippitelli (Regina Elena Cancer Institute, Rome, Italy). Cells were grown in RPMI 1640 (Life Technologies Inc., Grand Island, N.Y.) containing 10% heat inactivated fetal bovine serum supplemented with L-Glutamine 2 mM and 100 units/ml Penicillin-Streptomycin. Cells were kept in 5% CO2 atmosphere and routinely passaged when 80-85% confluent. […] Camptothecin, cisplatin, daunorubicine, etoposide and vincristine were purchased from Sigma-Aldrich Inc. (Sain Louis, Mo.) and resuspended in DMSO (cisplatin, camptothecin and etoposide) or in H2O (daunorubicine and vincristine). Anti-CD95 agonistic antibody (clone CH11) was purchased from Upstate Biotechnology (Lake Placid, N.Y.). Monoclonal antibody anti-Bcl-XL (H5, mouse) was from Santa Cruz (Santa Cruz, Calif.), antibody anti-cFlip/FLAME-1 (NF6, mouse) was kindly provided by Dr. P.H. Krammer (German Cancer Reseach Center, Heidelberg, Germany). Antibody anti β-actin (goat) was purchased from Oncogene (Boston, Mass.):
Cell viability was determined using the CellTiter 96® AQueous One Solution Cell Proliferation Assay (Promega, Madison, Wis.), according to the manufacturer's instructions. The assay is based on reduction of 3-(4,5-dimethylthiazol-2-yl)-5-(3-carboxymethoxyphenyl)-2-(4-sulfophenyl)-2H-tetrazolium, inner salt (MTS) to a colored formazan product that is measured spectrophotometrically. Cells were seeded in 96-well tissue culture plates and incubated at 37° C. in a 5% CO2 incubator overnight. […] After two days cells were treated for 10 hours with chemotherapeutic drugs or anti-CD95, then 20 μl of MTS were added to each well. After 3 hours of incubation at 37° C. with the MTS reagent, the plates were read on a Multilabel Counter (Victor2, Wallac, Perkin-Ehmer Inc., Norwalk, Conn.) and dye absorbance was measured at 490 nm.
The percentage of apoptotic cells was derived from the percentage of viable cells that was directly calculated from the values of the MTS assay. The percentage of protection from apoptosis was determined as: % protection=100%−X
X was calculated with the formule: (C1−C2):100=(S1−S2):X where:
C1 is the viability of untreated control cells, C2 is the viability of control cells treated with the apoptotic stimulus, S1 and S2 are the viability of cells preincubated with cytoldnes or transduced with anti-apoptotic genes, untreated (S1) or treated (S2) with the apoptotic stimuli.
(A) Percentage of viable RT112 bladder carcinoma cells pre-treated for two days with increasing doses of IL-4 (5, 10, 20, 50 and 100 ng/ml) which were maintained also during incubation with chemotherapeutic drugs and exposed to 50 ng/ml camptothecin of 7 μM etoposide. […] Cell viability was determined after 24 hours using the MTS assay as described in Materials and Methods and the percentage of protection from cell death was calculated as described in Materials and Methods. The results shown are the mean ±s.d. of four independent experiments.
When the cytokine is removed by washing the percentage of protection is downmodulated.
(E) IL-4 prevents anti CD95-induced apoptosis. […] Successively, cells were incubated with 30 ng/ml anti-CD95 agonistic antibody in standard medium, Control cells (−) were stimulated with anti-CD95 in the absence of cytokine pre-treatment. The results shown are the mean ±s.d. of four independent experiments.

[2] = test system: primary neoplastic cells derived from all the histological variants of thyroid epithelial carcinomas (PTC, FTC, UTC); assay: Chemotherapy-induced cell death in freshly purified thyroid carcinoma cells compared with normal thyrocytes; conditions: cisplatin 300 ng/ml, doxorubicin 5 μM, taxol 5 μM, 6, 12 and 24 h
Description: Such resistance persisted for some days and was generally lost after eight to ten days of in vitro culture (results not shown).
(§1) Thyroid cell purification and culture. Thyroid tissues from normal, PTC, FTC and UTC were digested for 2 hours with collagenase (1.5 mg/ml) (Gibco BRL, Grand Island, N.Y.) and hyaluronidase (20 μg/ml) (Sigma Chemical Co., St. Louis, Mo.) in DMEM. Thyrocytes were purified from the digested tissues by hematopoietic cell depletion with anti-CD45-coupled beads (Dynal, Wirral Merseyside, U.K.) and 12 hours of flask adherence, which allowed removal of other cells. After additional 12 hours of culture, thyroid cells were allowed to grow in monolayer for the immunocytochemistry or detached with trypsin+EDTA following exposure to cytokines or chemotherapeutic agents for functional and protein analyses. Thyrocytes were cultured in standard DMEM with 10% heat-inactivated FBS (Hyclone Laboratories, Logan, UK) in the presence or absence of human recombinant IL-4 (20 ng/ml), IL-10 (40 ng/ml) or IFN-γ (1000 IU/ml) (uroclone, Paignton, UK) and cisplatin (300 ng/ml), doxorubicin (5 μM) and taxol (5 μM) (Sigma) or TRAIL (Alexis, San Diego, USA). For the IL-4 and IL-10 neutralization, thyroid cancer cells were pretreated, for 48 hours, with anti-human IL-4 and IL-10 neutralizing antibodies (1 μg/ml) (R&D systems, MN, USA).
Cell death quantitation. Apoptotic events of neoplastic thyrocytes were evaluated by DNA staining and flow cytometry analysis. Thyroid cell pellets were resuspended in hypotonic fluoroclrome solution containing propidium iodide (50 μg/ml), in 0.1% sodium citrate and 0.1% Triton X-100. The percentage of hypodiploid nuclei was evaluated as previously described. Alternatively, freshly purified thyrocytes were plated in 96-bottomed plates in triplicate at 15,000 cells/well and cultured. The number of viable cells was detected by CellTiter Aqueous Assay Kit (Promega Corporation, WI, USA) adding 20 μl of solution reagent directly to culture wells, incubating for 1 hours at 37° C. and recording absorbance at 490 nm.
FIG. 1. […]

[3] = test system: Bcl-xL and Bcl-2 in normal thyrocytes; assay: Immunoblot of Bcl-xL and Bcl-2 in normal thyrocytes cultured with cytokines; conditions: after 48 hours of culture; IL-4 20 ng/ml, IL-10 40 ng/ml, IFN-γ 1000 IU/ml
Description: as §1
Protein isolation and Western Blotting. Cell pellets were resuspended in ice-cold NP-40 lysis buffer (50 mM Tris-HCl, pH 7.5, 150 mM NaCl, 1 mM EGTA, 1% NP-40) containing 1 mM PMSF, leupeptin (1 μg/ml), pepstatin (1 μg/ml) and aprotirni (1 μg/ml). Each lysate (30 μg) was fractioned on 12% SDS-polyacrylamide gels and blotted to nitrocellulose (Hybond, Amersham, Little Chalfont Buckinghamshire England, UK). Membrane was blocked for 1 h with nonfat dry milk in TBS containing 0.05% Tween 20 and successively incubated for 2 h with Abs specific to actin (Ab-1, mouse IgM, Calbiochem, Darmstadt, Germany), Bcl-2 (124, mouse IgG1, Upstate Biotechnology Inc.), Bcl-xL (H-5, mouse IgGl, Santa Cniz Biotechnology), IL-4 (3007.11, mouse IgG1, R&D Systems, Inc., Minneapolis, USA), IL-10 (23738.111, mouse IgG2b, R&D Systems), IFN-γ (25718.111, mouse IgG2a, R&D Systems). […]

normal thyrocytes = assay: Cytokine protection of normal thyrocytes from chemotherapy-induced apoptosis; conditions: 48 h pre-treatment, rhIL-4 20 ng/ml or rhIL-10 40 ng/ml, then drugs for 12 h
Description: Thyroid cell purification and culture. Thyroid tissues from normal, PTC, FTC and UTC were digested for 2 hours with collagenase (1.5 mg/ml) (Gibco BRL, Grand Island, N.Y.) and hyaluronidase (20 μg/ml) (Sigma Chemical Co., St. Louis, Mo.) in DMEM. Thyrocytes were purified from the digested tissues by hematopoietic cell depletion with anti-CD45-coupled beads (Dynal, Wirral Merseyside, U.K.) and 12 hours of flask adherence, which allowed removal of other cells. After additional 12 hours of culture, thyroid cells were allowed to grow in monolayer for the immunocytochemistry or detached with trypsin+EDTA following exposure to cytokines or chemotherapeutic agents for functional and protein analyses. […]
Cell death quantitation. Apoptotic events of neoplastic thyrocytes were evaluated by DNA staining and flow cytometry analysis. […] The percentage of hypodiploid nuclei was evaluated as previously described. […] The number of viable cells was detected by CellTiter Aqueous Assay Kit (Promega Corporation, WI, USA) adding 20 μl of solution reagent directly to culture wells, incubating for 1 hours at 37° C. and recording absorbance at 490 nm. […]

Molecule: CC[C@@]1(O)C(=O)OCc2c1cc1n(c2=O)Cc2cc3ccccc3nc2-1 [camptothecin, reference compound]
- tumor cells undergoing apoptosis in response to chemotherapeutic agents [1]: ~60%

Molecule: N.N.[Cl][Pt][Cl] [cisplatin]
- sensitivity of primary neoplastic thyroid cells to chemotherapeutic drugs (viability/apoptosis) [2]: considerable resistance

Molecule: COc1cccc2c1C(=O)c1c(O)c3c(c(O)c1C2=O)C[C@@](O)(C(=O)CO)C[C@@H]3O[C@H]1C[C@H](N)[C@H](O)[C@H](C)O1 [doxorubicin]
- sensitivity of primary neoplastic thyroid cells to chemotherapeutic drugs (viability/apoptosis) [2]: considerable resistance

Molecule: COc1cc([C@@H]2c3cc4c(cc3[C@@H](O[C@@H]3O[C@@H]5CO[C@@H](C)O[C@H]5[C@H](O)[C@H]3O)[C@H]3COC(=O)[C@H]23)OCO4)cc(OC)c1O [etoposide, reference compound]
- tumor cells undergoing apoptosis in response to chemotherapeutic agents [1]: ~60%

Molecule: CC(=O)O[C@H]1C(=O)[C@@]2(C)[C@H]([C@H](OC(=O)c3ccccc3)[C@]3(O)C[C@H](OC(=O)[C@H](O)[C@@H](NC(=O)c4ccccc4)c4ccccc4)C(C)=C1C3(C)C)[C@]1(OC(C)=O)CO[C@@H]1C[C@@H]2O [taxol]
- sensitivity of primary neoplastic thyroid cells to chemotherapeutic drugs (viability/apoptosis) [2]: considerable resistance

B1: IFN-γ: human recombinant IFN-γ (protein, UniProt P01579 24-161, looked up)
Interferon gamma: QDPYVKEAENLKKYFNAGHSDVADNGTLFLGILKNWKEESDRKIMQSQIVSFYFKLFKNFKDDQSIQKSVETIKEDMNVKFFNSNKKKRDDFEKLTNYSVTDLNVQRKAIHELIQVMAELSPAAKTGKRKRSQMLFRG
- Bcl-xL and Bcl-2 expression in normal thyrocytes [3]: not effective

B2: IL-10: human recombinant IL-10 (protein, UniProt P22301 19-178, looked up)
Interleukin-10: SPGQGTQSENSCTHFPGNLPNMLRDLRDAFSRVKTFFQMKDQLDNLLLKESLLEDFKGYLGCQALSEMIQFYLEEVMPQAENQDPDIKAHVNSLGENLKTLRLRLRRCHRFLPCENKSKAVEQVKNAFNKLQEKGIYKAMSEFDIFINYIEAYMTMKIRN
- prevention of death of normal thyrocytes exposed to cisplatinum, doxorubicin and taxol (normal thyrocytes): drastically prevented death
- Bcl-xL and Bcl-2 expression in normal thyrocytes [3]: upregulated
